Test results: patent publication US20080045535A1, “Prokineticin 2 receptor antagonists” (priority 2005, published 2008)
Where “and” joins values, the source holds several entries; their conditions need not be identical. Equal values may be shown once.

Molecular target: T1, HEK 293 GPR73 (prokineticin 1 receptor) expressing cells (Homo sapiens, UniProt Q8TCW9)
T1 construct: expressed in transfected cells; host or cells: HEK 293
Assay: PK1 functional assay: screening for PK1 antagonists on the FLIPR (calcium fluorescence)
Type: cell-based
Settings: HEK 293 GPR73 cells; for inhibition at 10 µM: HEK293, compound at 10 μM, read-out: Ca^2+ Mobilization % Inh @10 μM; for inhibition at 10 µM / Ca^2+ Mobilization % Inh @10 μM: multiple values = repeat tests; for IC50: PK1 ligand at EC50, multiple values = repeat tests, read-out: Ca^2+ Mobilization IC50; for Ca^2+ Mobilization % Inh @10 μM: compound at 10 μM
How it was run: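 HEK 293 cells expressing GPR73 were loaded with Calcium Plus Dye for 30 min at 37 C, then read for calcium fluorescence on FLIPR. Values were baseline-subtracted and expressed as percent of maximal control; percent inhibition is 100 minus that, and IC50 was fitted from it.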

T1 sequence (Q8TCW9 whole entry): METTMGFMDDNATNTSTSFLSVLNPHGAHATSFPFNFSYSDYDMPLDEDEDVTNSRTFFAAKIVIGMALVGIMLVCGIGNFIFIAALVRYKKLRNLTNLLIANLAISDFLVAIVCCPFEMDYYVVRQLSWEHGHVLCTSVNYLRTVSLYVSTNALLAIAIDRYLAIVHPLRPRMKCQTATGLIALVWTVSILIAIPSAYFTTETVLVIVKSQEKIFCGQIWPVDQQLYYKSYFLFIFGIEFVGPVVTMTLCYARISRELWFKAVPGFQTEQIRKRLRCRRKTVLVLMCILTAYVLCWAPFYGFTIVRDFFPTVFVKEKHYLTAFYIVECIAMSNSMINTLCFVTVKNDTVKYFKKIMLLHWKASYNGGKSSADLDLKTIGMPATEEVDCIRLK

Molecule	inhibition at 10 µM	IC50	Ca^2+ Mobilization % Inh @10 μM (10 µM)	Ca^2+ Mobilization % Inh @10 μM
COc1ccc(Cn2c(NCCNC(=N)Nc3nc4c(c(C(F)(F)F)n3)CCCC4)nc(=O)n(Cc3ccc(F)cc3)c2=O)cc1 [Cpd 138]	70%	1340 nM		
COc1ccc(CCn2c(=O)nc(NCCNC(=N)N)n(Cc3ccc(OC)cc3)c2=O)cc1 [Cpd 145]	86%	461 nM		
COc1ccc(CCCn2c(=O)nc(NCCNC(=N)N)n(Cc3ccc(OC)cc3)c2=O)cc1 [Cpd 146]	87%	670 nM		
COC(=O)c1ccc(Cn2c(NCCNC(=N)N)nc(=O)n(Cc3ccc(Cl)c(Cl)c3)c2=O)cc1 [Cpd 147]	82%			
CCCCOc1ccc(Cn2c(NCCNC(=N)N)nc(=O)n(Cc3ccccc3)c2=O)cc1 [Cpd 148]	41%	> 10000 nM		
N=C(N)NCCNc1nc(=O)n(Cc2ccc(Cl)cc2)c(=O)n1Cc1ccoc1 [Cpd 150]		1870 nM		71%
COc1ccc(Cn2c(NCCNC(=N)NC(C)=O)nc(=O)n(Cc3ccc(F)cc3)c2=O)cc1 [Cpd 151]	99%	3 nM		
CCCNC(=N)NCCNc1nc(=O)n(Cc2ccc(F)cc2)c(=O)n1Cc1ccc(OC)cc1 [Cpd 154]	99%	3 nM and 6 nM	98%	
CCNC(=N)NCCNc1nc(=O)n(Cc2ccc(F)cc2)c(=O)n1Cc1ccc(OC)cc1 [Cpd 155]	99%	16 nM		
CNC(=N)NCCNc1nc(=O)n(Cc2ccc(F)cc2)c(=O)n1Cc1ccc(OC)cc1 [Cpd 156]	102%	4 nM and 7 nM	99%	
COc1ccc(Cn2c(C(=O)NCCNC(=N)N)cc(=O)n(Cc3ccc(OC)cc3)c2=O)cc1 [Cpd 157, 1,3-Bis-(4-methoxy-benzyl)-2,6-dioxo-1,2,3,6-tetrahydro-pyrimidine-4-carboxylic acid (2-guanidino-ethyl)-amide]	92%	197 nM		
COc1ccc(Cn2c(OCCNC(=N)N)cc(=O)n(Cc3ccc(OC)cc3)c2=O)cc1 [Cpd 158, N-{2-[1,3-Bis-(4-methoxy-benzyl)-2,6-dioxo-1,2,3,6-tetrahydro-pyrimidin-4-yloxy]-ethyl}-guanidine]	93%	254 nM		
COc1ccc(Cn2c(CCCNC(=N)N)cc(=O)n(Cc3ccc(OC)cc3)c2=O)cc1 [Cpd 160, N-{3-[1,3-Bis-(4-methoxy-benzyl)-2,6-dioxo-1,2,3,6-tetrahydro-pyrimidin-4-yl]-propyl}guanidine]	89%	616 nM		
N-{2-[5-Benzyl-1-(4-methoxy-benzyl)-4,6-dioxo-1,4,5,6-tetrahydro-[1,3,5]triazin-2-ylamino]-ethyl}-oxyguanidine [Cpd 27]		1970 nM		55%

Results, then the molecule that gave them:

inhibition at 10 µM	IC50	Ca^2+ Mobilization % Inh @10 μM (10 µM)	Ca^2+ Mobilization % Inh @10 μM	Molecule
100%	13 nM and 24 nM	94%		COc1ccc(Cn2c(NCCNC(=N)Nc3ncccn3)nc(=O)n(Cc3ccc(F)cc3)c2=O)cc1 [Cpd 135]
50%	> 10000 nM			COc1ccc(Cn2c(N[C@@H](C)[C@H](C)NC(=N)N)nc(=O)n(Cc3ccc(F)cc3)c2=O)cc1 [Cpd 136]
101%	15 nM and 31 nM			COc1ccc(Cn2c(N[C@H](C)[C@@H](C)NC(=N)N)nc(=O)n(Cc3ccc(F)cc3)c2=O)cc1 [Cpd 137]
95%	18 nM			COc1ccc(Cn2c(NCCNC(=N)Nc3ccc(C)cn3)nc(=O)n(Cc3ccc(F)cc3)c2=O)cc1 [Cpd 139]
89%	455 nM			COc1ccc(Cn2c(NCCNC(=N)N3CCOCC3)nc(=O)n(Cc3ccc(F)cc3)c2=O)cc1 [Cpd 140]
73%	1840 nM			N=C(N)NCCNc1nc(=O)n(Cc2ccc(Cl)cc2)c(=O)n1Cc1ccco1 [Cpd 141]
90%	323 nM			COc1ccc(Cn2c(NCCCCCNC(=N)N)nc(=O)n(Cc3ccc(Cl)cc3)c2=O)cc1 [Cpd 142]
100%	6 nM and 27 nM			COc1ccc(Cn2c(=O)nc(NCCNC(=N)N)n(Cc3ccc(O)cc3)c2=O)cc1 [Cpd 143, N-{2-[1-(4-Hydroxy-benzyl)-5-(4-methoxy-benzyl)-4,6-dioxo-1,4,5,6-tetrahydro-[1,3,5]triazin-2-ylamino]-ethyl}-guanidine]
77%	1330 nM			COc1ccc(Cn2c(NCCCCCCNC(=N)N)nc(=O)n(Cc3ccc(Cl)cc3)c2=O)cc1 [Cpd 144]
	4780 nM		64%	NC(N)=NCCNc1nc(=O)n(Cc2ccc(Cl)cc2)c(=O)n1Cc1ccccc1 [Cpd 149]
97%	9 nM			C=CCNC(=N)NCCNc1nc(=O)n(Cc2ccc(F)cc2)c(=O)n1Cc1ccc(OC)cc1 [Cpd 152]
99%	13 nM			COc1ccc(Cn2c(NCCNC(=N)NC(C)C)nc(=O)n(Cc3ccc(F)cc3)c2=O)cc1 [Cpd 153]
98%	13 nM			COc1ccc(Cn2c(SCCNC(=N)N)cc(=O)n(Cc3ccc(OC)cc3)c2=O)cc1 [Cpd 159, N-{2-[1,3-Bis-(4-methoxy-benzyl)-2,6-dioxo-1,2,3,6-tetrahydro-pyrimidin-4-ylsulfanyl]-ethyl}-guanidine]
